The values that follow come from patent publication US6696498B2, “2-cyclopenten-1-one and its derivatives as inhibitors of the NF-kB factor” (Consiglio Nazionale Della Richerche, priority 1996, dated 2004).

Experiment [1] deals with T1, NF-kB (Homo sapiens, UniProt P19838+Q04206).
T1 construct: endogenous in cells; host or cells: Jurkat (human T lymphoid cell line)
The experiment in a line: NF-kB activation after other types of stimulation (tumor necrosis factor alpha or viral infection) in different human cells. Format: cell-based. To be noted: stimulation by tumor necrosis factor alpha or viral infection, data not shown. The text has this: (§1) Inhibition tests have been carried out in type T lymphoid human cells (Jurkat cell line), as well as in other human cell lines. NF-kB activation was stimulated with 12-o-tetradecanoyl-phorbol-13-acetate (TPA). 2-Cyclopenten-1-one was also effective in inhibiting NF-kB activation after other types of stimulation, including stimulation by tumor necrosis factor alpha or viral infection, and in different types of human cells (data not shown).

Experiment [2] concerns HSF (Heat Shock Transcription Factor). The experiment in a line: HSF activation in TPA-stimulated Jurkat cells, EMSA of whole-cell extracts. Format: cell-based, human. To be noted: then TPA 25 ng/ml, extracts after 3 hours; for activation of HSF (specificity): 500 uM for 1 hour, FIG. 1D. The procedure:
(§2) The cells were prepared according to the method described in C. Amici et al. (Cancer Research 55, 4452-4457, 1995).
(§3) The cells were treated with 2-cyclopenten-1-one at different concentrations (125-1000 μM) for 1 hour and then were stimulated with TPA (25 ng/ml).
(§4) After 3 hours the whole-cell extracts were prepared and subjected to EMSA (Electrophoretic Mobility Shift Assay) as described for NF-kB in U. Zabel et al. (J. Biol. Chem. 266: 242, 1991) and HSF in C. Amici et al. (Cancer Res. 55: 4452, 1995), to determine NF-kB and HSF activation respectively.
The positions of the complex HSF-DNA (HSF), the HSF-DNA constitutive activity (CHBA) and the proteins-DNA non-specific interactions (ns) are indicated in FIG. 1B. The line “econtrol” indicates the non-TPA-stimulated cells as a control of non-activated NF-kB.
(§5) The cells were treated for 1 hour with the same concentration (500 uM) of: 2-cyclopenten-1-one, cyclopentanone or cyclopentene, and then were stimulated with TPA (25 ng/ml). C represents the non-TPA-stimulated control. After 3 hours the whole-cell extracts were prepared and subjected to EMSA to verify the activation of NF-kB (FIG. 1C) and of HSF (FIG. 1D) respectively.
Background: A gel shift assay detects complexes by their altered migration in electrophoresis.

Experiment [3] has as its target T1, NF-kB. Put plainly: TPA-induced NF-kB activation in Jurkat cells, EMSA of whole-cell extracts. Format: cell-based. Conditions: then TPA 25 ng/ml, extracts after 3 hours; for inhibition of TPA-induced NF-kB activation (specificity): 500 uM for 1 hour, FIG. 1C.
Source text: as §1
The effect of the treatment with 2-cyclopenten-1-one on NF-kB activation by TPA has been tested in Jurkat cells by using the procedures described hereinbelow and shown in FIG. 1.
as §2, §3, §4, §5

SMILES strings stand for the structures.

T1 sequence (P19838 1-433 limits assumed): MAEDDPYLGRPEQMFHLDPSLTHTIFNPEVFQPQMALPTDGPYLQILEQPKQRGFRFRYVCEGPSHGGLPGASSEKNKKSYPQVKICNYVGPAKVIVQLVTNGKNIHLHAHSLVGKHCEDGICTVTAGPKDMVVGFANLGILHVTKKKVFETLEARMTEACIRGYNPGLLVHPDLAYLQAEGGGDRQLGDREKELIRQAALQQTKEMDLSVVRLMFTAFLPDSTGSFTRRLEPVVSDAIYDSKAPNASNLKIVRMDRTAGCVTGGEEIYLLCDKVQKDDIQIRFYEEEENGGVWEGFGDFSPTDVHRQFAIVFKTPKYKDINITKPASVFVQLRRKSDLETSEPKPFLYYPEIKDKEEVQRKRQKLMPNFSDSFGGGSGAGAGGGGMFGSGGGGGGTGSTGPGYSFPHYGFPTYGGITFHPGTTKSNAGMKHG
T1 sequence (Q04206 whole entry): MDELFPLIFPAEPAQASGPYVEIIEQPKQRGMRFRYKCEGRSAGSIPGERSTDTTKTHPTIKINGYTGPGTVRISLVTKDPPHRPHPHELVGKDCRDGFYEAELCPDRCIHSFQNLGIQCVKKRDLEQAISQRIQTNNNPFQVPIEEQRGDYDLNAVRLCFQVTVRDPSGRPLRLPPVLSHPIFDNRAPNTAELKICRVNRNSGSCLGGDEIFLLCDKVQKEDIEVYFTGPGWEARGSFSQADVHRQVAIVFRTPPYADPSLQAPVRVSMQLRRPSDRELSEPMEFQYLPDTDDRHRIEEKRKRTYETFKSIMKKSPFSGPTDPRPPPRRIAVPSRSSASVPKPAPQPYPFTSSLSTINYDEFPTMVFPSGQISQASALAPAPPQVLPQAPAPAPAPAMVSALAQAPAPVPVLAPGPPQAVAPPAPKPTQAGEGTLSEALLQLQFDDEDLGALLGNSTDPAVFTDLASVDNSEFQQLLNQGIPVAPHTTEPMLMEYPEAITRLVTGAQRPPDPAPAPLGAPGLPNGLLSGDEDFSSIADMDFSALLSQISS

With `O=C1C=CCC1` [2-cyclopenten-1-one], the “inhibition of NF-kB activation after other types of stimulation” value against NF-kB [1] was “effective”. The “concentration from which activation of HSF is evident” value in experiment [2] (125-1000 μM for 1 hour, FIG. 1B) was not below 125 µM. Also, the “inhibition of NF-kB activation by TPA” value on NF-kB [3] (125 uM for 1 hour, FIG. 1A) is reported as “able to inhibit”. The “inhibition of TPA-induced NF-kB activation (specificity)” value (“inhibition … (specificity)” below) on NF-kB [3] is on record as “inhibits”. Also, the “NF-kB band (NF-kB-DNA complex) in EMSA” value at NF-kB [3] (500 um for 1 hour, FIG. 1A) is reported as “absent”.

In the case of `O=C1CCCC1` [cyclopentanone, reference compound], the “activation of HSF (specificity)” value in experiment [2] is given as “do not activate”. Moreover, at NF-kB [3], the “inhibition … (specificity)” value was “do not inhibit”.

With `C1=CCCC1` [cyclopentene, reference compound], the “activation of HSF (specificity)” value in experiment [2] was “do not activate”. Also, the “inhibition … (specificity)” value against NF-kB [3] is recorded as “do not inhibit”.
